# Measured values as given in patent EP3696281A1, “ARGINASE AS BIOMARKER AND DRUG TARGET FOR PCOS” (Johann Wolfgang Goethe-Universität Frankfurt am Main, priority 2019, dated 2020).
# Experiments:
# arginase = assay: Arginase activity in platelets incubated with arginase inhibitor, then lysed (MAK112 kit); format: cell-based, human; conditions: 30 minutes, P<0.05
# Text: Levels of ornithine (A), arginine (B), and the ratio of ornithine to arginine (C) in plasma from healthy donors or from PCOS patients, n= 22 (Student's t test). (D) Arginase activity in plasma from healthy donors or from PCOS patients, n=16 (Student's t test). (E) Levels of arginase-i in plasma from healthy donors or from PCOS patients, n=16 (Student's t test). (F) Levels of arginase-i in plasma from healthy donors or from PCOS patients in the presence or in the absence of microparticles, n=16 (ANOVA and Newman-Keuls post-test). (G) Levels of platelet-derived microparticles (PMPs) in plasma from healthy donors or from PCOS patients, n=17 (Student's t test). (H) Levels of arginase-i measured by flow cytometry in PMPs from healthy donors and from PCOS patients, n=17. […]
# Given that platelets are the main source of plasma arginase in PCOS patients, the effect of arginase inhibitor on platelet arginase activity and function was assessed. […]
# Arginase activity was determined in plasma or in platelets using commercially available kits (MAK112, Sigma, Steinheim, Germany), according to manufacturer's instructions.
# washed human platelets = assay: Aggregation of washed human platelets elicited by thrombin or U46619 (aggregometer); format: cell-based; conditions: 5 minutes; for effect of pre-treatment with arginase inhibitor on arginine-mediated inhibition of platelet aggregation: pre-incubation with inhibitor (Nor-NOHA 100 µmol/L, 30 minutes), then arginine 1 mmol/L, thrombin or U46619; for thrombin or thromboxane A2 analogue-induced aggregation of platelets: arginine 1 mmol/L, alone
# Text: Levels of ornithine (A), arginine (B), and the ratio of ornithine to arginine (C) in plasma from healthy donors or from PCOS patients, n= 22 (Student's t test). (D) Arginase activity in plasma from healthy donors or from PCOS patients, n=16 (Student's t test). (E) Levels of arginase-i in plasma from healthy donors or from PCOS patients, n=16 (Student's t test). (F) Levels of arginase-i in plasma from healthy donors or from PCOS patients in the presence or in the absence of microparticles, n=16 (ANOVA and Newman-Keuls post-test). (G) Levels of platelet-derived microparticles (PMPs) in plasma from healthy donors or from PCOS patients, n=17 (Student's t test). (H) Levels of arginase-i measured by flow cytometry in PMPs from healthy donors and from PCOS patients, n=17.
# Human platelets were obtained by centrifugation (900g, 7 minutes) of platelet-rich plasma, as described. […] The resulting platelet-poor plasma was collected and frozen at -80°C for further evaluation.
# Platelet aggregation. Aggregation of washed human platelets (4x10^8platelets/mL) was measured using an 8-channel aggregometer (PAP8, Mölab, Germany).
SMILES,arginase activity (arginase; platelets incubated with L-norvaline 10 mmol/L),effect of pre-treatment with arginase inhibitor on arginine-mediated inhibition of platelet aggregation (washed human platelets; platelets from PCOS patients),effect of pre-treatment with arginase inhibitor on arginine-mediated inhibition of platelet aggregation (washed human platelets; platelets from healthy donors),arginase activity (arginase; platelets incubated with nor-NOHA 100 µmol/L),thrombin or thromboxane A2 analogue-induced aggregation of platelets (washed human platelets; platelets from PCOS patients),thrombin or thromboxane A2 analogue-induced aggregation of platelets (washed human platelets; platelets from healthy donors)
CCC[C@H](N)C(=O)O [L-norvaline],significantly inhibited arginase activity,significantly revealed the inhibitory effects of arginine,did not have additional effect on arginine-mediated platelet inhibition,,,
"N=C(NO)NCC[C@H](N)C(=O)O [NorNOHA, Nω-hydroxy-nor-L-arginine]",,significantly revealed the inhibitory effects of arginine,did not have additional effect on arginine-mediated platelet inhibition,significantly inhibited arginase activity,,
N=C(N)NCCC[C@H](N)C(=O)O [arginine],,,,,did not affect the aggregation,inhibited thrombin or thromboxane A2 analogue-induced aggregation
